In BindingDB's records for doi:10.1016/s0960-894x(00)00023-8 (Dupont Pharmaceuticals, 2000):
pIC50: −log10 of the molar value. Structures can show the parent of a compound that is named as a salt.

Assay: Inhibition of platelet aggregation in human platelet rich plasma (hPRP)

Row | pIC50 | SMILES
1 | 5.28 | N=C(N)c1ccc(C2=NOC(CC(=O)N3CCCC(C(=O)O)C3)C2)cc1 (configuration not stated) [1-{2-[3-(4-Carbamimidoyl-phenyl)-4,5-dihydro-isoxazol-5-yl]-acetyl}-piperidine-3-carboxylic acid; TFA]
2 | 5.60 | N=C(N)c1ccc(C2=NOC(CC(=O)N3CCC(C(=O)O)CC3)C2)cc1 (configuration not stated) [1-{2-[3-(4-Carbamimidoyl-phenyl)-4,5-dihydro-isoxazol-5-yl]-acetyl}-piperidine-4-carboxylic acid; TFA]
3 | 5.19 | N=C(N)c1ccc(C2=NOC(CC(=O)N3CCC(=O)C(C(=O)O)C3)C2)cc1 (configuration not stated) [1-{2-[3-(4-Carbamimidoyl-phenyl)-4,5-dihydro-isoxazol-5-yl]-acetyl}-4-oxo-piperidine-3-carboxylic acid; TFA]

The remaining lines, values behind:

Row | SMILES | pIC50
4 | N=C(N)c1ccc(C2=NOC(CC(=O)N3CCCCCC3CC(=O)O)C2)cc1 (configuration not stated) [(1-{2-[3-(4-Carbamimidoyl-phenyl)-4,5-dihydro-isoxazol-5-yl]-acetyl}-azepan-2-yl)-acetic acid; TFA] | 5.43
5 | N=C(N)c1ccc(C2=NOC(CC(=O)N3CCCC3CC(=O)O)C2)cc1 (configuration not stated) [(1-{2-[3-(4-Carbamimidoyl-phenyl)-4,5-dihydro-isoxazol-5-yl]-acetyl}-pyrrolidin-2-yl)-acetic acid; TFA] | 5.96
6 | N=C(N)c1ccc(C2=NOC(CC(=O)N3CCCCC3CC(=O)O)C2)cc1 (configuration not stated) [(1-{2-[3-(4-Carbamimidoyl-phenyl)-4,5-dihydro-isoxazol-5-yl]-acetyl}-piperidin-2-yl)-acetic acid; TFA] | 6.55

Assay: as above
Remark: another data set of the same source

Row | pIC50 | SMILES
7 | 7.22 | N=C(N)c1ccc(C2=NOC(CC(=O)NCCC(=O)O)C2)cc1 (configuration not stated)
